Data taken from US10226448B2, “3-(1H-pyrrolo[3,2-C]pyridin-2-yl)-1H-pyrazolo[3,4-B]pyridines and therapeutic uses thereof” (Samumed, LLC, priority 2015, dated 2019).

Experiments:
Type in all cases: cell-based
[1] = system: Wnt activity (Sp5-Luc reporter, TCF/LEF binding sites) in SW480 colon carcinoma cells; assay: Wnt activity screening assay: Sp5-Luc reporter gene assay in SW480 cells; details: Homo sapiens; for EC50: Sp5-Luc reporter, SW480 cells, overnight incubation; for inhibition at 10 µM: SW480, read-out: percent inhibition at 10 μM
Source text: The screening assay for Wnt activity is described as follows. Reporter cell lines can be generated by stably transducing cancer cell lines (e.g., colon cancer) or primary cells (e.g., IEC-6 intestinal cells) with a lentiviral construct that includes a Wnt-responsive promoter driving expression of the firefly luciferase gene.
SW480 colon carcinoma cells were transduced with a lentiviral vector expressing luciferase with a human Sp5 promoter consisting of a sequence of eight TCF/LEF binding sites. SW480 cells stably expressing the Sp5-Luc reporter gene and a hygromycin resistance gene were selected by treatment with 150 μg/mL of hygromycin for 7 days. These stably transduced SW480 cells were expanded in cell culture and used for all further screening activities. […] For Sp5-Luc reporter gene assays, the cells were plated at 4,000 cells/well in 384-well plates with medium containing 1% fetal bovine serum and incubated overnight at 37° C. and 5% CO2. Following incubation, 20 μl of BrightGlo luminescence reagent (Promega) was added to each well of the 384-well assay plates. The plates were placed on an orbital shaker for 2 min and then luminescence was quantified using the Envision (Perkin Elmer) plate reader. Readings were normalized to DMSO only treated cells, and normalized activities were utilized for EC50 calculations using the dose-response log (inhibitor) vs. response variable slope (four parameters) nonlinear regression feature available in GraphPad Prism 5.0 (or Dotmatics).

[2] = system: SW480 colon cancer cells; assay: Cell viability assay (CellTiter-Blue) in SW480 colon cancer cells; details: Homo sapiens; for EC50: 96 h, SW480 cell viability, four days, CellTiter-Blue; for inhibition at 10 µM: SW480, read-out: percent inhibition at 10 μM
Protocol: Representative compounds were screened using the following assay procedure to assess the effect on cell viability as described below.
Approximately 2×10^3 SW480 colon cancer cells were seeded into each well and allowed to incubate in the presence or absence of compound for four days at 37° C./5% CO2. Eight replicates of DMSO-treated cells served as controls and cells treated with compound were performed in duplicate.
After incubation, 20 μL of CellTiter-Blue (Promega) was added to each well allowed to incubate for approximately 3 hours. This reagent was a buffered solution which contains resazurin, metabolically active cells were able to reduce rezarurin (blue) into resorufin (pink) which was highly fluorescent. This measured fluorescence was used as a readout for cell viability.

[3] = system: LL29 cells (primary human fibroblasts derived from IPF patients), α-smooth muscle actin; assay: Inhibition of the fibrotic process: αSMA staining in TGF-β1 treated primary human fibroblasts from IPF patients (LL29 cells); details: Fibroblast; for EC50: 96 h, LL29 cells, TGF-β1 20 ng/mL, 4 days, % αSMA positive cells
Protocol: Representative compounds were screened using primary human fibroblasts (derived from IPF patients) treated with TGF-β1 to determine their ability to inhibit the fibrotic process.
LL29 cells are plated at 1,500 cells/well in 80 μL/well F12 medium supplemented with 1% Fetal Bovine Serum. […] Wells treated with TGF-β1 and containing DMSO were used as controls. […] Following incubation for 4 days, SYTOX green nucleic acid stain (Life Technologies [Thermo Fisher Scientific]) was added to the wells at a final concentration of 1 μM and incubated at room temperature for 30 min.

[4] = system: IL-6 in THP-1 cells; assay: IL-6 inhibition in LPS-stimulated THP-1 human monocyte cells (HTRF); details: for EC50: IL-6 inhibition, LPS-stimulated THP-1 cells, HTRF, 10-point dose-response starting from 10 μM; for inhibition at 10 µM: THP-1, read-out: percentage in parentheses beside EC50 >10
Protocol: Compound Screening: THP-1 cells were cultured in basal media with 1% FBS for 24 hours before the start of the assay. […] THP-1 cells were plated at 5000 cells/well in the 384-well plates and incubated at 37° C. for 2 h. 500 ng/mL of LPS was added after 2 hours and cells were incubated for another 22 hours at 37° C. Plates were spun in a centrifuge for 1 minute at […] and a mixture of anti-IL6 XL665, and anti-IL6 Cryptate diluted in reconstitution buffer (Cisbio Inc.) was added to each well. Following incubation for 3 hrs at room temperature, Homogeneous Time-Resolved Fluorescence (HTRF) was measured using the Envision (Perkin Elmer) at 665 nm and […]. The ratio of fluorescence at 665 nm to 620 nm was used as a readout for IL6 quantification. All samples were processed in duplicate. Readings were normalized to DMSO treated cells and normalized activities were utilized for EC50 calculations using the dose-response log (inhibitor) vs. response variable slope (four parameters) nonlinear regression feature available in GraphPad Prism 5.0 (or Dotmatics).

Compound | EC50 [1] | EC50 [2] | EC50 [4] | EC50 [3] | inhibition at 10 µM [1] | inhibition at 10 µM [4] | inhibition at 10 µM [2] | inhibition at 10 µM ([3]; read-out: percent inhibition at 10 μM)
Fc1cccc(-c2nccc3[nH]c(-c4n[nH]c5ncc(-c6cncc(CN7CCCCC7)c6)cc45)cc23)c1 [Compound 15, 3-(4-(3-Fluorophenyl)-1H-pyrrolo[3,2-c]pyridin-2-yl)-5-(5-(piperidin-1-ylmethyl)pyridin-3-yl)-1H-pyrazolo[3,4-b]pyridine] | 1820 nM | 856 nM | 4780 nM | 660 nM |  |  |  | 
Fc1cccc(-c2nccc3[nH]c(-c4n[nH]c5ncc(-c6ccncc6)cc45)cc23)c1 [Compound 18, 3-(4-(3-Fluorophenyl)-1H-pyrrolo[3,2-c]pyridin-2-yl)-5-(pyridin-4-yl)-1H-pyrazolo[3,4-b]pyridine] | > 10000 nM | 738 nM | > 10000 nM | 542 nM | 22.6% | 0% |  | 
Fc1cccc(-c2nccc3[nH]c(-c4n[nH]c5ncc(-c6ccccn6)cc45)cc23)c1 [Compound 28, 3-(4-(3-Fluorophenyl)-1H-pyrrolo[3,2-c]pyridin-2-yl)-5-(pyridin-2-yl)-1H-pyrazolo[3,4-b]pyridine] | 1290 nM | 519 nM | 3460 nM | 752 nM |  |  |  | 
CC(C)(C)CC(=O)Nc1cncc(-c2cnc3[nH]nc(-c4cc5c(-c6ccc(F)cc6)nccc5[nH]4)c3c2)c1 [Compound 44, N-(5-(3-(4-(4-Fluorophenyl)-1H-pyrrolo[3,2-c]pyridin-2-yl)-1H-pyrazolo[3,4-b]pyridin-5-yl)pyridin-3-yl)-3,3-dimethylbutanamide] | 986 nM | 700 nM | 2040 nM | 315 nM |  |  |  | 
CC(C)(C)C(=O)Nc1cncc(-c2cnc3[nH]nc(-c4cc5c(N6CCCCC6)nccc5[nH]4)c3c2)c1 [Compound 176, N-(5-(3-(4-(Piperidin-1-yl)-1H-pyrrolo[3,2-c]pyridin-2-yl)-1H-pyrazolo[3,4-b]pyridin-5-yl)pyridin-3-yl)pivalamide] | > 10000 nM | > 10000 nM | > 10000 nM | > 10000 nM | 18.2% | 25.9% | 5.2% | 28.2%
CN(C)Cc1cncc(-c2cnc3[nH]nc(-c4cc5c(N6CCCCC6)nccc5[nH]4)c3c2)c1 [Compound 181, N,N-Dimethyl-1-(5-(3-(4-(piperidin-1-yl)-1H-pyrrolo[3,2-c]pyridin-2-yl)-1H-pyrazolo[3,4-b]pyridin-5-yl)pyridin-3-yl)methanamine] | > 10000 nM | 7760 nM | > 10000 nM | 9720 nM | 20.3% | 41.5% |  | 

Now from value to compound, other results behind:

EC50 [1] | EC50 [2] | EC50 [4] | Compound | EC50 [3] | inhibition at 10 µM [1] | inhibition at 10 µM [4] | inhibition at 10 µM [2] | inhibition at 10 µM ([3]; read-out: percent inhibition at 10 μM)
> 10000 nM | 1500 nM | > 10000 nM | Cc1ccncc1-c1cnc2[nH]nc(-c3cc4c(-c5ccc(F)cc5)nccc4[nH]3)c2c1 [Compound 33, 3-(4-(4-Fluorophenyl)-1H-pyrrolo[3,2-c]pyridin-2-yl)-5-(4-methylpyridin-3-yl)-1H-pyrazolo[3,4-b]pyridine] | 553 nM | 46.5% | 16.4% |  | 
> 10000 nM | > 10000 nM | > 10000 nM | CN(C)c1cncc(-c2cnc3[nH]nc(-c4cc5c(-c6cccnc6)nccc5[nH]4)c3c2)c1 [Compound 91, N,N-Dimethyl-5-(3-(4-(pyridin-3-yl)-1H-pyrrolo[3,2-c]pyridin-2-yl)-1H-pyrazolo[3,4-b]pyridin-5-yl)pyridin-3-amine] | 6980 nM | 41.6% | 32.3% | 3% | 
1150 nM | > 10000 nM | 3630 nM | FC1(F)CCN(Cc2cncc(-c3cnc4[nH]nc(-c5cc6c(-c7ccncc7)nccc6[nH]5)c4c3)c2)C1 [Compound 138, 5-(5-((3,3-Difluoropyrrolidin-1-yl)methyl)pyridin-3-yl)-3-(4-(pyridin-4-yl)-1H-pyrrolo[3,2-c]pyridin-2-yl)-1H-pyrazolo[3,4-b]pyridine] | 2220 nM |  |  | 14.3% | 
